Reference: patent US12421216B2, “Voruciclib polymorphs and methods of making and using thereof” (MEI PHARMA, INC., priority 2019, dated 2025)
“Also recorded” adds a separate entry of the source.

Key:
Type in all cases: physicochemical
[1] = Physical stability upon exposure to accelerated aging conditions (AAC, 40° C./75% RH), re-analysis by HT-XRPD
[2] = Physical stability of solid forms upon drying under vacuum, HT-XRPD
Method: (§1) Amorphous voruciclib oxalate salt, generated by freeze-drying, was used to start the thermocycling experiments. Suspensions were prepared in the selected solvent systems at RT. Subsequently, the mixtures were subjected to a temperature profile. After the temperature profile, the solids were separated from the solutions by centrifugation and were dried at ambient conditions and under deep vacuum before being harvested and analyzed by HT-XRPD. The liquid phases were also dried under deep vacuum before being harvested and analyzed by HT-XRPD. All solids were exposed to AAC (40° C./75% RH, 2 days).
After the temperature profile, the solids were separated from the liquids by centrifugation and the solid phase was dried at ambient conditions and under deep vacuum (5 mbar) before being harvested and analyzed by HT-XRPD. The liquid phases were dried under deep vacuum (5 mbar) and the recovered solids were analyzed by HT-XRPD. All solids were then exposed to accelerated aging conditions (40° C./75% RH, 2 days) followed by HT-XRPD re-analysis.
as §1, with “voruciclib phosphate” for “voruciclib oxalate”, “profile. Upon completion of” for “profile. After”, “dried under” for “dried at”
After the temperature profile, the solids were separated from the liquids by centrifugation and the solid phase was dried under ambient conditions and under deep vacuum (5 mbar, 18 h) before being harvested and analyzed by HT-XRPD. The liquid phases were dried under deep vacuum (5 mbar, 18 h) and the recovered solids were analyzed by HT-XRPD. All solids were then exposed to accelerated aging conditions (40° C./75% RH, 2 days) followed by HT-XRPD re-analysis.
Amorphous voruciclib malonate salt, generated by freeze-drying, was used to start the thermocycling experiments. Suspensions were prepared in the selected solvent systems at RT and were subjected to three thermocycles between 50 and 5° C., followed by aging at 25° C. for 3 days. Upon completion of the aging time, the solids were separated from the liquids by centrifugation and they were dried at ambient conditions and under deep vacuum (5 mbar) before being harvested and analyzed by HT-XRPD.
After the temperature profile the solids were separated from the solution by centrifugation and they were dried at ambient conditions and under deep vacuum before being harvested and analyzed by HT-XRPD.

[3] = Dynamic Vapor Sorption (DVS) hygroscopicity
Method: (§2) Differences in hygroscopicity (moisture uptake) of the various forms of a solid material provided a measure of their relative stability at increasing relative humidity. Moisture sorption isotherms of small samples were obtained using a DVS-1 system from Surface Measurement Systems (London, UK); this instrument is suitable for use with a few milligrams of sample, with an accuracy of 0.1 μg. The relative humidity was varied during sorption-desorption-sorption (45-95-0-45% RH) at a constant temperature of 25° C. Weight equilibration per step was set at dm/dt <0.0002 for a minimum of 1 hour or maximum of 6 hours. Afterwards the sample was measured by HT-XRPD.
The hygroscopicity was classified according to the European Pharmacopoeia Hygroscopicity classification.
as §2, with “(40-95-0-40%” for “(45-95-0-45%”
as §2, with “use with as little as a few” for “use with a few”
The hygroscopicity of Mao1 was determined by DVS. The powder was exposed to a RH profile consisting of sorption/desorption/sorption cycles (40-95-0-40% RH) performed at 25° C. The water vapor uptake gained during the sorption half-cycle was 0.75%.

[4] = Qualitative solubility determination in water at room temperature, with observation of gel formation
Method: The aqueous solubility of Oxa2 (starting material) was assessed by the qualitative solubility determination approach. To 5.4 mg of Oxa2, water was added in steps of 50 μl until the material was dissolved (Exp. ID: SAS1). Visual inspection by the naked eye was used to decide whether complete dissolution occurred.
After the addition of 7.5 ml water, Oxa2 was not dissolved in water at room temperature. The suspension was heated to 50° C. upon which complete dissolution occurred, as indicated by a clear solution.
The aqueous solubility of Pho1 (Exp. ID: TCP23) was assessed by the qualitative solubility determination approach. To 5.6 mg of Pho1, water was added in steps of 50 μl until the material was dissolved (Exp. ID: SAS2). Visual inspection by the naked eye was used to decide whether complete dissolution occurred. After the addition of 700 μl water, Pho1 was not dissolved in water at room temperature whereas after a subsequent addition of 200 μl water (900 μl in total), the material completely dissolved.
The solubility of Mao1 in water was determined by adding small aliquots of water to the material until it was dissolved.

For CN1CC[C@@H](c2c(O)cc(O)c3c(=O)cc(-c4ccc(C(F)(F)F)cc4Cl)oc23)[C@@H]1CO.O=C(O)C(=O)O [Oxa2], the “Physical stability upon exposure to AAC” value ([1]; 40° C./75% RH, 2 days, HT-XRPD before and after) was “stable when exposed to advanced aging conditions; also recorded: physically stable upon exposure to AAC”, the “Solid forms Ambient AAC” value ([1]; oxalate salt thermocycling, ambient-dried solids after AAC (40° C./75% RH, 2 days), HT-XRPD) was “Oxa2” and the “Solid forms ML AAC” value ([1]; oxalate salt thermocycling, solids from evaporated mother liquor after AAC (40° C./75% RH, 2 days), HT-XRPD) was “Oxa2”. For the same compound, the “Solid forms Vacuum AAC” value ([1]; oxalate salt thermocycling, vacuum-dried solids after AAC (40° C./75% RH, 2 days), HT-XRPD) was “Oxa2”, the “Solid forms Vacuum” value ([2]; oxalate salt thermocycling solids, form after drying under deep vacuum (5 mbar, 18 h), HT-XRPD, label = ambient-dried form) was “Oxa2” and the “Physical stability upon drying under deep/high vacuum” value ([2]; oxalate, phosphate, malonate forms, 5 mbar, 18 h) was “stable under vacuum conditions; also recorded: physically stable”. For the same compound, the Water uptake ([3]; DVS, 25° C./80% RH) was “approximately 2.4%”, the Hygroscopicity classification ([3]; European Pharmacopoeia classification, water uptake at 25° C./80% RH) was “moderately hygroscopic” and the “Solid form recovered after DVS analysis” value ([3]; XRPD after sorption-desorption-sorption cycle) was “Oxa2 was recovered”. For the same compound, the “Solubility classification in water” value ([4]; USP classification, room temperature) was “practically insoluble (solubility <0.1 mg/mL)”, the “Solubility in water at room temperature” value ([4]; qualitative determination by adding aliquots of water, visual) was under 100 µg/mL and the “Behaviour upon addition of water (gel formation)” value ([4]; small amount of water added to solid) was “No indication of gel-formation was observed”.
